Key:
Format in all cases: biochemical
CYP3A4 [1] = biological target: T1, CYP3A4 (Homo sapiens, UniProt P08684); experiment: IC50 against CYP3A4 by inhibition of testosterone metabolism in human liver microsomes; details: 0.1 mg/mL human liver microsomes, 25 μM testosterone, 1 mM NADPH, 6-β-OH-testosterone production, eight minutes; read-out: IC50, μM (HLM, testosterone)
T1 construct: 0.1 mg/mL human liver microsomes; from tissue; host or cells: human liver microsomes
Method: 2. Determination of IC50 Against CYP3A4 by Measurement of Inhibition of Testosterone Metabolism
This assay was performed using a standard 96 well plate design. […] Quantitation of metabolite peak area ratio against an internal standard is determined by LC-MS/MS analysis. The production of 6-β-OH-testosterone from testosterone metabolism is determined after incubation for eight minutes by comparison to a standard curve generated for the metabolite
(§1) Samples were analyzed in the MRM mode using a Sciex API 3000 mass spectrometer (Applied Biosystems, Foster City, Calif.) with a Paradigm MS4 binary pump (Michrom BioResources Inc., Auburn, Calif.) and a LEAP CTC PAL autosampler (LEAP Technologies, Carrboro, N.C.). A Phenomenex Synergi, 4μ, Polar-RP, 10×2.0 mm column (Phenomenex, Torrance, Calif.) was used for separation with a mobile phase composition of: 0.1% formic acid in water (A) and: 0.1% formic acid in methanol (B). The following gradient was used: […]
(§2) The sample injection volume was 10 μL and flow was split post-column with 0.4 mL/min going to the mass spectrometer. Analysis was performed using the following API 3000 mass spectrometer settings: […]

CYP3A4 [2] = biological target: T1, CYP3A4; experiment: IC50 against CYP3A4 by inhibition of midazolam metabolism in human liver microsomes; details: 0.1 mg/mL human liver microsomes, 2 μM midazolam, 1 mM NADPH, 1-hydroxymidazolam production, eight minutes; read-out: IC50, μM (HLM, midazolam)
Method: 3. Determination of IC50 Against CYP3A4 by Measurement of Inhibition of Midazolam Metabolism
This assay was performed using a standard 96 well plate design. […] The incubation substrate mix contains 2 μM midazolam, 0.1 mg/mL human liver microsomes, 1 mM NADPH, and potassium phosphate buffer (100 mM, pH 7.4). Quantitation of metabolite peak area ratio against internal standard is determined by LC-MS/MS analysis. The production of 1-hydroxymidazolam from midazolam metabolism is determined after incubation for eight minutes by comparison to a standard curve generated for the metabolite.
as §1, §2

[3] = biological target: T2, recombinant CYP3A4-b5 enzyme (Baculosomes®) (Homo sapiens, UniProt P08684); experiment: Kiapp against recombinant CYP3A4 enzyme (Baculosomes), BFC substrate; details: recombinant CYP3A4-b5 (Invitrogen), 5 uM BFC, 200 uM NADPH, pre-incubation at least 30 minutes, pH 7.0, room temperature
T2 construct: purchased Invitrogen (Carlsbad, Calif.)
Method: 1. Determination of Compound Kiapp
A determination of the Kiapp of the compounds of the invention against recombinant CYP3A4 enzyme was performed as follows. The assay was performed in a 100 mM sodium phosphate buffer pH 7.0, 5 mM TCEP and containing 2% dimethylformamide (final concentration) upon addition of substrate and inhibitor. A typical reaction for the determination of Kiapp values was carried at room temperature in a solid black Costar u-bottom 96-well polypropylene plate. […] When pre-incubation was completed (˜30 min), the reaction was initiated by adding NADPH (200 uM, final concentration), and 7-benzyloxy-4-(trifluoromethyl)-coumarin (BFC) (5 uM, final concentration). The oxidation of the coumarin substrate was recorded by a 96-well plate reader POLARstar (BMG LABTECH, Offenburg, Germany).
The initial reaction velocities were measured during the first 5 min of the reaction when the release of the fluorescent product is linear with time, in the absence and in the presence of various concentrations of inhibitors.
The fluorescent substrate BFC was purchased from Sigma (St Louis, Mo.). Two commercial sources of recombinant enzymes were used in this study: recombinant CYP3A4-b5 enzyme (Baculosomes®) was purchased from Invitrogen (Carlsbad, Calif.) and the recombinant CYP3A4+b5 enzyme (Supersomes®) was purchased from BD Biosciences (Woburn, Mass.).

T2 sequence (P08684 whole entry): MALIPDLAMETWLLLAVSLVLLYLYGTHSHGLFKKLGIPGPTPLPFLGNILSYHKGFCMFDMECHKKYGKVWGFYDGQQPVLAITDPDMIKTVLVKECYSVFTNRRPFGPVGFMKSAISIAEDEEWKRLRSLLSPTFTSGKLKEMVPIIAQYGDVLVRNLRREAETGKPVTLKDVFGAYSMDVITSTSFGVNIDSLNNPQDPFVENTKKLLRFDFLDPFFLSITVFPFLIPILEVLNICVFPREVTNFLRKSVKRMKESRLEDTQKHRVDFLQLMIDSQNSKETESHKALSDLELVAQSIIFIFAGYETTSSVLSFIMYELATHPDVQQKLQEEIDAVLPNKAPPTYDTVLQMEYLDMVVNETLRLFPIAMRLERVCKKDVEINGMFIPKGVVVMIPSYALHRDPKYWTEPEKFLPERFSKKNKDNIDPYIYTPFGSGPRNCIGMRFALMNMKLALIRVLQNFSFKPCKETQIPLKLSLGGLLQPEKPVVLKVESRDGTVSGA
T1 sequence (P08684 whole entry): as above

Compound	IC50 (CYP3A4 [1])	IC50 (CYP3A4 [2])	Ki [3]
O=C(Cn1nc(-c2ccncc2)cc1Cc1ccc(F)cc1)N1CCC[C@H]1CO [Example 77, [(2S)-1-{[5-(4-fluorobenzyl)-3-pyridin-4-yl-1H-pyrazol-1-yl]acetyl}pyrrolidin-2-yl]methanol]	0.0545 µM	0.0511 µM	0.166 µM
CN(C(=O)C1CC1)C1CCN(C(=O)Cn2nc(-c3ccncc3)cc2Cc2ccc(F)cc2)CC1 [Example 13, N-(1-{[5-(4-fluorobenzyl)-3-pyridin-4-yl-1H-pyrazol-1-yl]acetyl}piperidin-4-yl)-N-methylcyclopropanecarboxamide]	0.009 µM	< 0.00346 µM	0.0111 µM
CCC(=O)N(C)C1CCN(C(=O)Cn2nc(-c3ccncc3)cc2Cc2ccc(F)cc2)CC1 [Example 10, N-(1-{[5-(4-fluorobenzyl)-3-pyridin-4-yl-1H-pyrazol-1-yl]acetyl}piperidin-4-yl)-N-methylpropanamide]	0.033 µM	0.013 µM	0.0297 µM
Cc1c(CNC(=O)Cn2nc(-c3ccncc3)cc2Cc2ccc(F)cc2)cnn1C [Example 89, N-[(1,5-dimethyl-1H-pyrazol-4-yl)methyl]-2-[5-(4-fluorobenzyl)-3-pyridin-4-yl-1H-pyrazol-1-yl]acetamide]	0.015 µM	0.016 µM	0.0728 µM
Fc1ccc(Cc2cc(-c3ccncc3)nn2Cc2nc(-c3ncccn3)no2)cc1 [Example 25, 2-(5-{[5-(4-fluorobenzyl)-3-pyridin-4-yl-1H-pyrazol-1-yl]methyl}-1,2,4-oxadiazol-3-yl)pyrimidine]	< 0.012 µM	0.045 µM	0.0568 µM
Cc1noc(CNC(=O)Cn2nc(-c3ccncc3)cc2Cc2ccc(F)cc2)n1 [Example 90, 2-[5-(4-fluorobenzyl)-3-pyridin-4-yl-1H-pyrazol-1-yl]-N-[(3-methyl-1,2,4-oxadiazol-5-yl)methyl]acetamide]	0.012 µM	0.019 µM	0.0773 µM
CCC(=O)N1CC(n2nc(-c3ccncc3)cc2Cc2ccc(F)cc2)C1 [Example 22, 1-(3-(5-(4-fluorobenzyl)-3-(pyridin-4-yl)-1H-pyrazol-1-yl)azetidin-1-yl)propan-1-one]	0.072 µM	0.084 µM	0.166 µM
CN(C1CCN(C(=O)Cn2nc(-c3ccncc3)cc2Cc2ccc(F)cc2)CC1)S(C)(=O)=O [Example 14, N-(1-{[5-(4-fluorobenzyl)-3-pyridin-4-yl-1H-pyrazol-1-yl]acetyl}piperidin-4-yl)-N-methylmethanesulfonamide]	0.015 µM	0.013 µM	0.0236 µM
Cc1cc(CNC(=O)Cn2nc(-c3ccncc3)cc2Cc2ccc(F)cc2)no1 [Example 88, 2-[5-(4-fluorobenzyl)-3-pyridin-4-yl-1H-pyrazol-1-yl]-N-[(5-methylisoxazol-3-yl)methyl]acetamide]	0.016 µM	0.024 µM	0.0753 µM
Fc1ccc(Cc2cc(-c3ccncc3)nn2C2CN(C(c3ccccc3)c3ccccc3)C2)cc1 [Example 20, 4-[1-[1-(diphenylmethyl)azetidin-3-yl]-5-(4-fluorobenzyl)-1H-pyrazol-3-yl]pyridine]	0.251 µM	0.228 µM	0.0365 µM
CCOC(=O)N(C)C1CCN(C(=O)Cn2nc(-c3ccncc3)cc2Cc2ccc(F)cc2)CC1 [Example 113]	0.011 µM	0.009 µM	0.00676 µM
CN(C(=O)C1CCC1)C1CCN(C(=O)Cn2nc(-c3ccncc3)cc2Cc2ccc(F)cc2)CC1 [Example 12, N-(1-{[5-(4-fluorobenzyl)-3-pyridin-4-yl-1H-pyrazol-1-yl]acetyl}piperidin-4-yl)-N-methylcyclobutanecarboxamide]	0.009 µM	< 0.003 µM	0.00701 µM
CC(C)(N)CNC(=O)Cn1nc(-c2ccncc2)cc1Cc1ccc(F)cc1 [Example 57, N-(2-amino-2-methylpropyl)-2-[5-(4-fluorobenzyl)-3-pyridin-4-yl-1H-pyrazol-1-yl]acetamide]	0.062 µM	0.064 µM	0.124 µM
COC(=O)N(C)C1CCN(C(=O)Cn2nc(-c3ccncc3)cc2Cc2ccc(F)cc2)CC1 [Example 15, Methyl (1-{[5-(4-fluorobenzyl)-3-pyridin-4-yl-1H-pyrazol-1-yl]acetyl}piperidin-4-yl)methylcarbamate]	0.013 µM	0.009 µM	0.0222 µM
O=C(Cn1nc(-c2ccncc2)cc1Cc1ccc(F)cc1)N1CC[C@@H](N2CCOCC2)C1 [Example 103]	0.068 µM	0.025 µM	0.106 µM
CNC(=O)N(C)C1CCN(C(=O)Cn2nc(-c3ccncc3)cc2Cc2ccc(F)cc2)CC1 [Example 117, 1-(1-{[5-(4-fluorobenzyl)-3-pyridin-4-yl-1H-pyrazol-1-yl]acetyl}piperidin-4-yl)-1,3-dimethylurea]	0.018 µM	0.011 µM	0.0702 µM
O=C(Cn1nc(-c2ccncn2)cc1Cc1ccc(F)cc1)N1CCN(c2ccccn2)CC1 [Example 97, 4-{5-(4-fluorobenzyl)-1-[2-oxo-2-(4-pyridin-2-ylpiperazin-1-yl)ethyl]-1H-pyrazol-3-yl}pyrimidine]	< 0.012 µM	0.045 µM	0.232 µM
CC(C)(CN1CCOCC1)NC(=O)Cn1nc(-c2ccncc2)cc1Cc1ccc(F)cc1 [Example 54, N-(1,1-dimethyl-2-morpholin-4-ylethyl)-2-[5-(4-fluorobenzyl)-3-pyridin-4-yl-1H-pyrazol-1-yl]acetamide]	< 0.012 µM	< 0.012 µM	0.0085 µM
NC(=O)[C@@H]1CCC[C@@H]1NC(=O)Cn1nc(-c2ccncc2)cc1Cc1ccc(F)cc1 [Example 84, (1R,2S)-2-({[5-(4-fluorobenzyl)-3-pyridin-4-yl-1H-pyrazol-1-yl]acetyl}amino)cyclo-pentanecarboxamide]	0.041 µM	0.021 µM	0.156 µM
CNC1CCN(C(=O)Cn2nc(-c3ccncc3)cc2Cc2ccc(F)cc2)C1 (stereo not drawn) [Example 74, 1-{[5-(4-fluorobenzyl)-3-pyridin-4-yl-1H-pyrazol-1-yl]acetyl}-N-methylpyrrolidin-3-amine]	0.114 µM	0.046 µM	0.19 µM
O=C(c1ncccn1)N1CC(n2nc(-c3ccncc3)cc2Cc2ccc(F)cc2)C1 [Example 68, 2-({3-[5-(4-fluorobenzyl)-3-pyridin-4-yl-1H-pyrazol-1-yl]azetidin-1-yl}carbonyl)pyrimidine]	0.081 µM	0.091 µM	0.137 µM
CC(C)C(=O)N(C)C1CCN(C(=O)Cn2nc(-c3ccncc3)cc2Cc2ccc(F)cc2)CC1 [Example 11, N-(1-{[5-(4-fluorobenzyl)-3-pyridin-4-yl-1H-pyrazol-1-yl]acetyl}piperidin-4-yl)-N,2-dimethylpropanamide]	0.012 µM	< 0.003 µM	0.00841 µM
Cn1ccnc1CNC(=O)Cn1nc(-c2ccncc2)cc1Cc1ccc(F)cc1 [Example 87, 2-[5-(4-fluorobenzyl)-3-pyridin-4-yl-1H-pyrazol-1-yl]-N-[(1-methyl-1H-imidazol-2-yl)methyl]acetamide]	0.019 µM	0.019 µM	0.108 µM
CCn1ccnc1CNC(=O)Cn1nc(-c2ccncc2)cc1Cc1ccc(F)cc1 [Example 79, N-[(1-ethyl-1H-imidazol-2-yl)methyl]-2-[5-(4-fluorobenzyl)-3-pyridin-4-yl-1H-pyrazol-1-yl]acetamide]	0.019 µM	0.016 µM	0.052 µM
